In US7998952B2, “Thiolactams and uses thereof” (Millennium Pharmaceuticals, Inc., priority 2008, dated 2011):

Each compound was assayed against T1, recombinant human PLK1[2-369]T210D (Homo sapiens, UniProt P53350, T210D) (assay: PLK1 DELFIA Kinase Assay). Settings: 50 μM ATP, 2 μM peptide substrate, 0.3 nM enzyme, 90 minutes at room temperature.
T1 construct: recombinant human PLK1[2-369]T210D; Smt (SUMO) fusion partner (N, cleaved yes); host or cells: E. coli
T1 sequence (P53350 2-369 T210D): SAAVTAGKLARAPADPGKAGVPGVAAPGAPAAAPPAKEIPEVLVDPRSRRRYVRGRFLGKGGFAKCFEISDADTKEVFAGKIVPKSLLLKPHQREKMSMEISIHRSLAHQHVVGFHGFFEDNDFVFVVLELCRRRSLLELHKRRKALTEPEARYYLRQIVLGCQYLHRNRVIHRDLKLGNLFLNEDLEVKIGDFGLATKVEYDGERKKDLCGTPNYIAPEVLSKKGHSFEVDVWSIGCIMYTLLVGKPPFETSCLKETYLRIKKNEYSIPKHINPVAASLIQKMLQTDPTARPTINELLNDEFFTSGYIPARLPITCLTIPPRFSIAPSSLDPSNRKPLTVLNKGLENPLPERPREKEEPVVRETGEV
Format: biochemical
Experimental: Recombinant human PLK1 was expressed in E. coli as an N-terminal Smt fusion protein using a proprietary vector (pSGX4) by Structural Genomics (SGX). The fusion partner was removed through cleavage with Ulp1 after an initial purification using a Ni2+ affinity column.
PLK1 DELFIA® Kinase Assay
The enzymatic reaction mixture, with or without PLK inhibitors, was incubated 90 minutes at room temperature before termination with 50 μL of STOP buffer containing 1% BSA, 0.05% Tween20, 100 mM EDTA. 50 μL of the stopped enzyme reaction mixture was transferred to a Neutravidin-coated 384-well plate (Pierce) and incubated at room temperature for 60 minutes. […] The wells were washed and then the bound europium was liberated using 50 μL of Enhancement Solution (Perkin Elmer). Quantification of europium was done using a Pherastar (BMG Labtech)
An IC50 of less than 5 nM was found for `Cc1nc(NCC2CCN(C)CC2)ccc1Nc1ncc2c(n1)-c1ccc(Cl)cc1NC(=S)C2` [Compound I-40, 9-chloro-2-[(2-methyl-6-{[(1-methylpiperidin-4-yl)methyl]amino}pyridin-3-yl)amino]-5,7-dihydro-6H-pyrimido[5,4-d][1]benzazepine-6-thione] in this work. An IC50 of less than 5 nM was found for `Cc1ncc(C2CCN(C)CC2(C)C)cc1Nc1ncc2c(n1)-c1ccc(Cl)cc1NC(=S)C2` (centres unmarked) [Compound I-63, 9-chloro-2-{[2-methyl-5-(1,3,3-trimethylpiperidin-4-yl)pyridin-3-yl]amino}-5,7-dihydro-6H-pyrimido[5,4-d][1]benzazepine-6-thione] in this work. An IC50 of less than 5 nM was found for `CN(C)CCCc1cnc(F)c(Nc2ncc3c(n2)-c2ccc(Cl)cc2NC(=S)C3)c1` [Compound I-27, 9-chloro-2-({5-[3-(dimethylamino)propyl]-2-fluoropyridin-3-yl}amino)-5,7-dihydro-6H-pyrimido[5,4-d][1]benzazepine-6-thione] in this work. An IC50 of less than 5 nM was found for `CCc1ccc2c(c1)NC(=S)Cc1cnc(Nc3cc(CCCN(C)C)cnc3C)nc1-2` [Compound I-5, 2-({5-[3-(dimethylamino)propyl]-2-methylpyridin-3-yl}amino)-9-ethyl-5,7-dihydro-6H-pyrimido[5,4-d][1]benzazepine-6-thione] in this work. An IC50 of less than 5 nM was found for `Cc1nc(N2CCCC(N(C)C)C2)ccc1Nc1ncc2c(n1)-c1ccc(Cl)cc1NC(=S)C2` (centres unmarked) [Compound I-7, 9-chloro-2-({6-[3-(dimethylamino)piperidin-1-yl]-2-methylpyridin-3-yl}amino)-5,7-dihydro-6H-pyrimido[5,4-d][1]benzazepine-6-thione] in this work. An IC50 of less than 5 nM was found for `Cc1nc(NC2CCN(C)CC2)ccc1Nc1ncc2c(n1)-c1ccc(C3CC3)cc1NC(=S)C2` [Compound I-80, 9-cyclopropyl-2-({2-methyl-6-[(1-methylpiperidin-4-yl)amino]pyridin-3-yl}amino)-5,7-dihydro-6H-pyrimido[5,4-d][1]benzazepine-6-thione] in this work. An IC50 of 5 to 25 nM was found for `CN(C)CCCN(C)c1ccc(Nc2ncc3c(n2)-c2ccc(Cl)cc2NC(=S)C3)cn1` [Compound I-71, 9-chloro-2-({6-[[3-(dimethylamino)propyl](methyl)amino]pyridin-3-yl}amino)-5,7-dihydro-6H-pyrimido[5,4-d][1]benzazepine-6-thione] in this work. An IC50 of less than 5 nM was found for `Cc1ncc(CCCCN(C)C)cc1Nc1ncc2c(n1)-c1ccc(C(F)(F)F)cc1NC(=S)C2` [Compound I-12, 2-({5-[4-(dimethylamino)butyl]-2-methylpyridin-3-yl}amino)-9-(trifluoromethyl)-5,7-dihydro-6H-pyrimido[5,4-d][1]benzazepine-6-thione] in this work. An IC50 of less than 5 nM was found for `Cc1nc(NC2CCOCC2)ccc1Nc1ncc2c(n1)-c1ccc(Cl)cc1NC(=S)C2` [Compound I-19, 9-chloro-2-{[2-methyl-6-(tetrahydro-2H-pyran-4-ylamino)pyridin-3-yl]amino}-5,7-dihydro-6H-pyrimido[5,4-d][1]benzazepine-6-thione] in this work. An IC50 of less than 5 nM was found for `Cc1nc2c(cc1Nc1ncc3c(n1)-c1ccc(C(F)(F)F)cc1NC(=S)C3)CN(C)CC2` [Compound I-86, 2-[(2,6-dimethyl-5,6,7,8-tetrahydro-1,6-naphthyridin-3-yl)amino]-9-(trifluoromethyl)-5,7-dihydro-6H-pyrimido[5,4-d][1]benzazepine-6-thione] in this work. An IC50 of less than 5 nM was found for `Cc1nc(N2CCCC(N(C)C)C2)ccc1Nc1ncc2c(n1)-c1ccc(C(F)(F)F)cc1NC(=S)C2` (centres unmarked) [Compound I-9, 2-({6-[3-(dimethylamino)piperidin-1-yl]-2-methylpyridin-3-yl}amino)-9-(trifluoromethyl)-5,7-dihydro-6H-pyrimido[5,4-d][1]benzazepine-6-thione] in this work. An IC50 of less than 5 nM was found for `Cc1nc(NC(C)C)ccc1Nc1ncc2c(n1)-c1ccc(C(F)(F)F)cc1NC(=S)C2` [Compound I-57, 2-{[6-(isopropylamino)-2-methylpyridin-3-yl]amino}-9-(trifluoromethyl)-5,7-dihydro-6H-pyrimido[5,4-d][1]benzazepine-6-thione] in this work. An IC50 of less than 5 nM was found for `Cc1ccc(Nc2ncc3c(n2)-c2ccc(Cl)cc2NC(=S)C3)c(C)n1` [Compound I-81, 9-chloro-2-[(2,6-dimethylpyridin-3-yl)amino]-5,7-dihydro-6H-pyrimido[5,4-d][1]benzazepine-6-thione] in this work. An IC50 of less than 5 nM was found for `CN1CCN(c2cncc(Nc3ncc4c(n3)-c3ccc(Cl)cc3NC(=S)C4)c2)CC1` [Compound I-107, 9-chloro-2-{[5-(4-methylpiperazin-1-yl)pyridin-3-yl]amino}-5,7-dihydro-6H-pyrimido[5,4-d][1]benzazepine-6-thione] in this work. An IC50 of less than 5 nM was found for `Cc1nc(OC2CCN(C)CC2)ccc1Nc1ncc2c(n1)-c1ccc(C(F)(F)F)cc1NC(=S)C2` [Compound I-77, 2-({2-methyl-6-[(1-methylpiperidin-4-yl)oxy]pyridin-3-yl}amino)-9-(trifluoromethyl)-5,7-dihydro-6H-pyrimido[5,4-d][1]benzazepine-6-thione] in this work. An IC50 of less than 5 nM was found for `COc1ncc(CCCN(C)C)cc1Nc1ncc2c(n1)-c1ccc(Cl)cc1NC(=S)C2` [Compound I-24, 9-chloro-2-({5-[3-(dimethylamino)propyl]-2-methoxypyridin-3-yl}amino)-5,7-dihydro-6H-pyrimido[5,4-d][1]benzazepine-6-thione] in this work. An IC50 of 5 to 25 nM was found for `Cc1ncc(CCCN(C)C)cc1Nc1ncc2c(n1)-c1ccc(C#N)cc1NC(=S)C2` [Compound I-79, 2-({5-[3-(dimethylamino)propyl]-2-methylpyridin-3-yl}amino)-6-thioxo-6,7-dihydro-5H-pyrimido[5,4-d][1]benzazepine-9-carbonitrile] in this work. An IC50 of less than 5 nM was found for `Cc1ncc(CCN2C[C@@H](C)O[C@H](C)C2)cc1Nc1ncc2c(n1)-c1ccc(Cl)cc1NC(=S)C2` [Compound I-10] in this work. An IC50 of less than 5 nM was found for `Cc1ncc(N2CCN(C)CC2)cc1Nc1ncc2c(n1)-c1ccc(C(F)(F)F)cc1NC(=S)C2` [Compound I-46, 2-{[2-methyl-5-(4-methylpiperazin-1-yl)pyridin-3-yl]amino}-9-(trifluoromethyl)-5,7-dihydro-6H-pyrimido[5,4-d][1]benzazepine-6-thione] in this work. An IC50 of 5 to 25 nM was found for `CN(C)CCCc1cnc(C(F)(F)F)c(Nc2ncc3c(n2)-c2ccc(C(F)(F)F)cc2NC(=S)C3)c1` [Compound I-36, 2-{[5-[3-(dimethylamino)propyl]-2-(trifluoromethyl)pyridin-3-yl]amino}-9-(trifluoromethyl)-5,7-dihydro-6H-pyrimido[5,4-d][1]benzazepine-6-thione] in this work. An IC50 of less than 5 nM was found for `Cc1ncc(CCN2C[C@@H](C)O[C@@H](C)C2)cc1Nc1ncc2c(n1)-c1ccc(Cl)cc1NC(=S)C2` [Compound I-31, 9-chloro-2-[(5-{2-[(2R,6S)-2,6-dimethylmorpholin-4-yl]ethyl}-2-methylpyridin-3-yl)amino]-5,7-dihydro-6H-pyrimido[5,4-d][1]benzazepine-6-thione] in this work. An IC50 of 5 to 25 nM was found for `Cc1nc2c(cc1Nc1ncc3c(n1)-c1ccc(C(F)(F)F)cc1NC(=S)C3)CCC(N(C)C)C2` (centres unmarked) [Compound I-122, 2-{[7-(dimethylamino)-2-methyl-5,6,7,8-tetrahydroquinolin-3-yl]amino}-9-(trifluoromethyl)-5,7-dihydro-6H-pyrimido[5,4-d][1]benzazepine-6-thione] in this work. An IC50 of 5 to 25 nM was found for `Cc1nc(N2CCOCC2)ccc1Nc1ncc2c(n1)-c1cc(CCCN(C)C)c(Cl)cc1NC(=S)C2` [Compound I-83, 9-chloro-10-[3-(dimethylamino)propyl]-2-[(2-methyl-6-morpholin-4-ylpyridin-3-yl)amino]-5,7-dihydro-6H-pyrimido[5,4-d][1]benzazepine-6-thione] in this work. An IC50 of 5 to 25 nM was found for `Cc1nc(CC2CCN(C)CC2)ccc1Nc1ncc2c(n1)-c1ccc(Cl)cc1NC(=S)C2` [Compound I-44, 9-chloro-2-({2-methyl-6-[(1-methylpiperidin-4-yl)methyl]pyridin-3-yl}amino)-5,7-dihydro-6H-pyrimido[5,4-d][1]benzazepine-6-thione] in this work. An IC50 of less than 5 nM was found for `Cc1nc(N2CCOCC2)ccc1Nc1ncc2c(n1)-c1ccc(Cl)cc1NC(=S)C2` [Compound I-109, 9-chloro-2-[(2-methyl-6-morpholin-4-ylpyridin-3-yl)amino]-5,7-dihydro-6H-pyrimido[5,4-d][1]benzazepine-6-thione] in this work. An IC50 of less than 5 nM was found for `Cc1ncc(CCN2CCCCC2)cc1Nc1ncc2c(n1)-c1ccc(C(F)(F)F)cc1NC(=S)C2` [Compound I-87, 2-{[2-methyl-5-(2-piperidin-1-ylethyl)pyridin-3-yl]amino}-9-(trifluoromethyl)-5,7-dihydro-6H-pyrimido[5,4-d][1]benzazepine-6-thione] in this work. An IC50 of less than 5 nM was found for `Cc1nc(N2CCN(C)CC2)ccc1Nc1ncc2c(n1)-c1ccc(Cl)cc1NC(=S)C2` [Compound I-73, 9-chloro-2-{[2-methyl-6-(4-methylpiperazin-1-yl)pyridin-3-yl]amino}-5,7-dihydro-6H-pyrimido[5,4-d][1]benzazepine-6-thione] in this work. An IC50 of less than 5 nM was found for `CCN1CCN(c2cncc(Nc3ncc4c(n3)-c3ccc(Cl)cc3NC(=S)C4)c2)C[C@H]1C` [Compound I-58, 9-chloro-2-({5-[(3R)-4-ethyl-3-methylpiperazin-1-yl]pyridin-3-yl}amino)-5,7-dihydro-6H-pyrimido[5,4-d][1]benzazepine-6-thione] in this work. An IC50 of less than 5 nM was found for `CNCCCc1cnc(C)c(Nc2ncc3c(n2)-c2ccc(C(F)(F)F)cc2NC(=S)C3)c1` [Compound I-62, 2-({2-methyl-5-[3-(methylamino)propyl]pyridin-3-yl}amino)-9-(trifluoromethyl)-5,7-dihydro-6H-pyrimido[5,4-d][1]benzazepine-6-thione] in this work.
